The source of these data is ChEMBL document CHEMBL2074039 (Biochem Pharmacol, 1993).

Data set [1] concerns the target T1, ATP-dependent translocase ABCB1 (Homo sapiens, UniProt P08183). Put plainly: TP_TRANSPORTER: increase in Doxorubicin intracellular accumulation (Doxorubicin: 0-20 uM, trans-flupenthixol: 5 uM) in MCF-7/ADR cells. The data set is classed as functional, cell-based. Particulars: nci/adr-res.
The target of data set [2] is T1, ATP-dependent translocase ABCB1. Description: TP_TRANSPORTER: inhibition of Azidopine photoaffinity labelling (Azidopine: 0.2 uM, trans-flupenthioxol: 1 uM) in membranes from KB/V20C cells. The format is functional, cell membranes, Membrane.

T1 sequence (P08183 whole entry): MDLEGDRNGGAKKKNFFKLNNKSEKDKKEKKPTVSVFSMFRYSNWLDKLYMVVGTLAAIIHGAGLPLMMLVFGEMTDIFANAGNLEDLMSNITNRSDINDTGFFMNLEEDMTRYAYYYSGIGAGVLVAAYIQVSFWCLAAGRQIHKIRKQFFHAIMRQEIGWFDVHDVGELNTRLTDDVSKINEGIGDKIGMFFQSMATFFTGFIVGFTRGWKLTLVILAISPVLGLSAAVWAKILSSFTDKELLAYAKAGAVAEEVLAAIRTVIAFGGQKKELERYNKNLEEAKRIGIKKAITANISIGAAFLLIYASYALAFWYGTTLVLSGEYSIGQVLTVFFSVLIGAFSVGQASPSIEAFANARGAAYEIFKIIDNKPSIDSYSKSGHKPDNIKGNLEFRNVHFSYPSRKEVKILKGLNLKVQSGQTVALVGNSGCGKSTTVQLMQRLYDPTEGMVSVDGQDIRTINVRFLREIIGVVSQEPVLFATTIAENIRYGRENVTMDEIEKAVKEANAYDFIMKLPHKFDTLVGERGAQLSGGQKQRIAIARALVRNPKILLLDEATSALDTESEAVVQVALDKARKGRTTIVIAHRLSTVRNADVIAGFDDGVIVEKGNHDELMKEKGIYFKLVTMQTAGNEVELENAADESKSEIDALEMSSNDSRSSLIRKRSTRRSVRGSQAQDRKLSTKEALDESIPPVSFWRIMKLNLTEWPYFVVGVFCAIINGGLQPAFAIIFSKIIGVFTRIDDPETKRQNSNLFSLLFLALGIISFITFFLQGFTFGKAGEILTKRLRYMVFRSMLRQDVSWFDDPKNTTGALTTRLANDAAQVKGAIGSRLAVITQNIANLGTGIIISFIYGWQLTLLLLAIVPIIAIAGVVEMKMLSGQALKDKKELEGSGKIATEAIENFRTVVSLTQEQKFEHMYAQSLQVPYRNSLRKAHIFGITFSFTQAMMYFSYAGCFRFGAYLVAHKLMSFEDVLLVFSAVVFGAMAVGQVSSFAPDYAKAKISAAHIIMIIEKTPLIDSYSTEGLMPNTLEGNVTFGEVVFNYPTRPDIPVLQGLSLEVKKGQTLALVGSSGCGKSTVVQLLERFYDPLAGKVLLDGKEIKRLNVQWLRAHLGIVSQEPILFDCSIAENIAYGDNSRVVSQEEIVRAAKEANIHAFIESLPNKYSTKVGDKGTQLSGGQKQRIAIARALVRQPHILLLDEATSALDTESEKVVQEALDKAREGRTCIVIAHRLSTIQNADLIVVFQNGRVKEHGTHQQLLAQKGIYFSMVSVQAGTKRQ

For the compound `OCCN1CCN(CC/C=C2\c3ccccc3Sc3ccc(C(F)(F)F)cc32)CC1` [E-FLUPENTIXOL], the figures for the Activity result in data set [1] and in data set [2] were “inhibitor [2 to 3-fold]” and “inhibitor [+]”, respectively.
